Experimental data reported in patent US20120324604A1, “PESTICIDAL MIXTURES CONTAINING ISOXAZOLINE DERIVATIVES AND A FUNGICIDE” (priority 2010, published 2012).
Values joined by “and” are separate entries in the source; they are usually repeats but may differ in a detail not shown here. Equal entries are not always repeated.

Experiments:
Assay type in all cases: cell-based
[1] = system: Mycosphaerella arachidis (syn. Cercospora arachidicola); test: Mycosphaerella arachidis (Brown Leaf Spot of Groundnut) growth inhibition, microtiter plate, photometric; conditions: alone
Description: Mycosphaerella arachidis (syn. Cercospora arachidicola), Brown Leaf Spot of Groundnut (Peanut):
(§1) Conidia of the fungus from cryogenic storage were directly mixed into nutrient broth (potato dextrose broth). After placing a (DMSO) solution of the test compounds into a microtiter plate (96-well format) the nutrient broth containing the fungal spores was added.

Fusarium culmorum = Fusarium culmorum (Root Rot) growth inhibition, microtiter plate, photometric
Description: Fusarium culmorum (Root Rot):
as §1

Botrvtis cinerea = Botrvtis cinerea (Gray Mould) growth inhibition, microtiter plate, photometric; conditions: alone
Description: Botrvtis cinerea (Gray Mould):
as §1

[2] = system: Glomerella lagenarium (syn. Colletotrichum lagenarium); test: Glomerella lagenarium (Anthracnose of Cucurbits) growth inhibition, microtiter plate, photometric; conditions: alone
Description: Glomerella lagenarium (syn. Colletotrichum lagenarium), Anthracnose of Cucurbits:
as §1

Rhizoctonia solani = Rhizoctonia solani (Foot Rot, Damping-Off) growth inhibition, microtiter plate, photometric; conditions: applied alone
Description: Rhizoctonia solani (Foot Rot, Damping-Off):
Mycelial fragments of the fungus from cryogenic storage were directly mixed into nutrient broth (potato dextrose broth). After placing a (DMSO) solution of the test compounds into a microtiter plate (96-well format) the nutrient broth containing the fungal spores was added.

Pythium ultimum = Pythium ultimum (Damping Off) growth inhibition, microtiter plate, photometric
Description: Pythium ultimum (Damping Off):
Mycelial fragments of the fungus, prepared from a fresh liquid culture, were directly mixed into nutrient broth (potato dextrose broth). After placing a (DMSO) solution of the test compounds into a microtiter plate (96-well format) the nutrient broth containing the fungal spores was added.

Septoria tritici = Septoria tritici (Leaf Blotch) growth inhibition, microtiter plate, photometric; conditions: for AVERAGE DEAD IN %: alone; for AVERAGE DEAD IN % COMPOUND IV: COMPOUND IV alone
Description: Septoria tritici (Leaf Blotch):
as §1

Gaeumannomyces graminis = Gaeumannomyces graminis growth inhibition, microtiter plate, photometric
Description: Mycelial fragments of the fungus from cryogenic storage were directly mixed into nutrient broth (potato dextrose broth). After placing a (DMSO) solution of the test compounds into a microliter plate (96-well format) the nutrient broth containing the fungal spores was added.

Cc1cc(C2=NOC(c3cc(Cl)cc(Cl)c3)(C(F)(F)F)C2)ccc1C(=O)NC1CS(=O)(=O)C1 (racemic) [A8]
AVERAGE DEAD IN % ([1]; 0.0390625 PPM AI): 0% | AVERAGE DEAD IN % ([1]; 0.078125 PPM AI): 0% | AVERAGE DEAD IN % ([1]; 0.15625 PPM AI): 0% | AVERAGE DEAD IN % ([1]; 0.3125 PPM AI): 0% | AVERAGE DEAD IN % ([1]; 0.625 PPM AI): 0% | AVERAGE DEAD IN % ([1]; 1.25 PPM AI): 0% | AVERAGE DEAD IN % ([1]; 2.5 PPM AI): 0% | AVERAGE DEAD IN % ([1]; 5 PPM AI): 0% | AVERAGE DEAD IN % ([1]; 10 PPM AI): 0% | AVERAGE DEAD IN % ([1]; 20 PPM AI): 0% | AVERAGE DEAD IN % (Fusarium culmorum; single compound, 2.5 PPM AI, 48 hrs, 24° C.): 0% | AVERAGE DEAD IN % (Fusarium culmorum; single compound, 5 PPM AI, 48 hrs, 24° C.): 0% | AVERAGE DEAD IN % (Fusarium culmorum; single compound, 10 PPM AI, 48 hrs, 24° C.): 0% | AVERAGE DEAD IN % (Fusarium culmorum; single compound, 20 PPM AI, 48 hrs, 24° C.): 0% | AVERAGE DEAD IN % (Botrvtis cinerea; 0.078125 ppm AI): 0% | AVERAGE DEAD IN % (Botrvtis cinerea; 0.15625 ppm AI): 0% | AVERAGE DEAD IN % (Botrvtis cinerea; 0.3125 ppm AI): 0% | AVERAGE DEAD IN % (Botrvtis cinerea; 0.625 ppm AI): 0% | AVERAGE DEAD IN % (Botrvtis cinerea; 1.25 ppm AI): 0% | AVERAGE DEAD IN % (Botrvtis cinerea; 2.5 ppm AI): 0% | AVERAGE DEAD IN % (Botrvtis cinerea; 5 ppm AI): 0% | AVERAGE DEAD IN % (Botrvtis cinerea; 10 ppm AI): 0% | AVERAGE DEAD IN % (Botrvtis cinerea; 20 ppm AI): 0% | AVERAGE DEAD IN % ([2]; 0.078125 ppm AI): 0% | AVERAGE DEAD IN % ([2]; 0.15625 ppm AI): 0% | AVERAGE DEAD IN % ([2]; 0.3125 ppm AI): 0% | AVERAGE DEAD IN % ([2]; 0.625 ppm AI): 0% | AVERAGE DEAD IN % ([2]; 1.25 ppm AI): 0% | AVERAGE DEAD IN % ([2]; 2.5 ppm AI): 0% | AVERAGE DEAD IN % ([2]; 5 ppm AI): 0% | AVERAGE DEAD IN % ([2]; 10 ppm AI): 0% | AVERAGE DEAD IN % ([2]; 20 ppm AI): 0% | AVERAGE DEAD IN % (Rhizoctonia solani; 0.0390625 ppm AI): 0% | AVERAGE DEAD IN % (Rhizoctonia solani; 0.078125 ppm AI): 0% | AVERAGE DEAD IN % (Rhizoctonia solani; 0.15625 ppm AI): 0% | AVERAGE DEAD IN % (Rhizoctonia solani; 0.3125 ppm AI): 0% | AVERAGE DEAD IN % (Rhizoctonia solani; 0.625 ppm AI): 0% | AVERAGE DEAD IN % (Rhizoctonia solani; 1.25 ppm AI): 0% | AVERAGE DEAD IN % (Rhizoctonia solani; 2.5 ppm AI): 0% | AVERAGE DEAD IN % (Rhizoctonia solani; 5 ppm AI): 0% | AVERAGE DEAD IN % (Rhizoctonia solani; 10 ppm AI): 0% | AVERAGE DEAD IN % (Rhizoctonia solani; 20 ppm AI): 0% | AVERAGE DEAD IN % (Pythium ultimum; single compound at 0.078125 ppm AI): 0% | AVERAGE DEAD IN % (Pythium ultimum; single compound at 0.15625 ppm AI): 0% | AVERAGE DEAD IN % (Pythium ultimum; single compound at 0.3125 ppm AI): 0% | AVERAGE DEAD IN % (Pythium ultimum; single compound at 0.625 ppm AI): 0% | AVERAGE DEAD IN % (Pythium ultimum; single compound at 1.25 ppm AI): 0% | AVERAGE DEAD IN % (Pythium ultimum; single compound at 2.5 ppm AI): 0% | AVERAGE DEAD IN % (Pythium ultimum; single compound at 5 ppm AI): 0% | AVERAGE DEAD IN % (Pythium ultimum; single compound at 10 ppm AI): 0% | AVERAGE DEAD IN % (Pythium ultimum; single compound at 20 ppm AI): 0% | AVERAGE DEAD IN % (Septoria tritici; 0.0390625 ppm AI): 0% | AVERAGE DEAD IN % (Septoria tritici; 0.078125 ppm AI): 0% | AVERAGE DEAD IN % (Septoria tritici; 0.15625 ppm AI): 0% | AVERAGE DEAD IN % (Septoria tritici; 0.3125 ppm AI): 0% | AVERAGE DEAD IN % (Septoria tritici; 0.625 ppm AI): 0% | AVERAGE DEAD IN % (Septoria tritici; 1.25 ppm AI): 0% | AVERAGE DEAD IN % (Septoria tritici; 2.5 ppm AI): 0% | AVERAGE DEAD IN % (Septoria tritici; 5 ppm AI): 0% | AVERAGE DEAD IN % (Septoria tritici; 10 ppm AI): 0% | AVERAGE DEAD IN % (Septoria tritici; 20 ppm AI): 0%

COC(c1ccc(Cl)cc1Cl)C(C)NC(=O)c1cn(C)nc1C(F)F (stereo not shown) [COMPOUND IV]
AVERAGE DEAD IN % ([1]; 0.0625 ppm AI): 20% | AVERAGE DEAD IN % ([1]; 0.125 ppm AI): 90% | AVERAGE DEAD IN % ([1]; 0.125 PPM AI): 90% | AVERAGE DEAD IN % (Fusarium culmorum; alone, 1 PPM AI): 20% | AVERAGE DEAD IN % (Fusarium culmorum; alone, 2 PPM AI): 50% | AVERAGE DEAD IN % (Fusarium culmorum; single compound, 0.5 PPM AI, 48 hrs, 24° C.): 0% | AVERAGE DEAD IN % (Fusarium culmorum; single compound, 1 PPM AI, 48 hrs, 24° C.): 20% | AVERAGE DEAD IN % (Fusarium culmorum; single compound, 2 PPM AI, 48 hrs, 24° C.): 50% | AVERAGE DEAD IN % (Botrvtis cinerea; 0.03125 ppm AI): 0% | AVERAGE DEAD IN % (Botrvtis cinerea; 0.0625 ppm AI): 20% | AVERAGE DEAD IN % (Botrvtis cinerea; 0.125 ppm AI): 20% | AVERAGE DEAD IN % (Botrvtis cinerea; 0.25 ppm AI): 50% | AVERAGE DEAD IN % (Botrvtis cinerea; 0.5 ppm AI): 70% | AVERAGE DEAD IN % (Botrvtis cinerea; 1 ppm AI): 90% | AVERAGE DEAD IN % (Gaeumannomyces graminis; single compound at 0.25 ppm AI): 0% | AVERAGE DEAD IN % (Gaeumannomyces graminis; single compound at 0.5 ppm AI): 0% | AVERAGE DEAD IN % (Gaeumannomyces graminis; single compound at 1 ppm AI): 0% | AVERAGE DEAD IN % (Septoria tritici; 0.125 ppm AI): 20% | AVERAGE DEAD IN % (Septoria tritici; 0.25 ppm AI): 90% | AVERAGE DEAD IN % COMPOUND IV (Septoria tritici; 0.25 ppm AI): 70% and 90% | AVERAGE DEAD IN % COMPOUND IV (Septoria tritici; 0.5 ppm AI): 90% and 100%
